Assay results published in patent US5750530A, “Pharmaceutical diketopiperazine compounds” (Xenova Limited, priority 1994, dated 1998).
Where a name gives a salt, the structure may show the parent alone.

Target: PAI-1 (Homo sapiens, UniProt P05121)
Assay: biochemical
Assay type: biochemical
Conditions: for IC50: PAI chromogenic substrate assay
Method in brief: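 Compound preincubated with PAI-1 before addition to a tPA system; residual tPA converts plasminogen to plasmin, which cleaves chromogenic substrate S2251. Released p-nitroaniline read at 405 nm; values given as % inhibition at set concentrations or IC50.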

PAI-1, sequence (P05121 24-402): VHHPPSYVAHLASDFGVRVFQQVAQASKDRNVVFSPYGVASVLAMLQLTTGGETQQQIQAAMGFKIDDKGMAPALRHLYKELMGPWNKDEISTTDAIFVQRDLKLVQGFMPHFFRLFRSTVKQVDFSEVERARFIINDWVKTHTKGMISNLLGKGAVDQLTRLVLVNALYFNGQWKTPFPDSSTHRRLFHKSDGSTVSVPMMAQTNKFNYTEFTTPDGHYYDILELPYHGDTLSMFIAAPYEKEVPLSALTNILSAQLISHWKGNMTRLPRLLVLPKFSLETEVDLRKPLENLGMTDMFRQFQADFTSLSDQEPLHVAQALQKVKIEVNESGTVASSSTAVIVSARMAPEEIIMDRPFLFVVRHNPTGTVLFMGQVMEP

Row | SMILES | % Inhibition (5 μm) | % Inhibition (20 μm) | IC50 | % Inhibition (100 μm)
1 | CN(C)CCSc1ccc(/C=c2\[nH]c(=O)/c(=C/c3cccc(OCc4ccccc4)c3)[nH]c2=O)s1 [Compound 5487.HCl, (3Z,6Z)-6-(3-Benzyloxybenzylidene)-3-(5-(2-dimethylaminoethylthio)-2-thienyl)methylene-2,5-piperazinedione] | 7% | 54% | 7.2 µM | –
2 | CN(C)CCSc1ccc(/C=c2\[nH]c(=O)/c(=C/c3cccc([N+](=O)[O-])c3)[nH]c2=O)s1 [Compound 5316, (3Z,6Z)-3-(5-(2-Dimethylaminoethylthio)-2-thienyl)methylene-6-(3-nitrobenzylidene)-2,5-piperazinedione] | – | 10% | – | –
3 | CN(C)CCSc1ccc(/C=c2\[nH]c(=O)/c(=C/c3ccc(OCc4ccccc4)cc3)[nH]c2=O)cc1 [Compound 5481, (3Z,6Z)-3-(4-Benzyloxybenzylidene)-6-(4-(2-dimethylaminoethylthio)benzylidene)-2,5-piperazinedione] | 9% | 56% | 20 µM | –
4 | CN(C)CCSc1ccc(/C=c2\[nH]c(=O)/c(=C/CC(C)(C)C)[nH]c2=O)s1 [Compound 5502, (3Z,6Z)-3-(5-(2-Dimethylaminoethylthio)-2-thienyl)methylene-6-(3,3-dimethyl-1-butylidene)-2,5-piperazinedione] | 0% | 12% | > 20 µM | –
5 | CN(C)CCSc1sc(/C=c2\[nH]c(=O)/c(=C/c3ccccc3)[nH]c2=O)cc1[N+](=O)[O-] [Compound 5403.HCl, (3Z,6Z)-6-Benzylidene-3-(5-(2-dimethylaminoethylthio)-4-nitro-2-thienyl)methylene-2,5-piperazinedione] | 12% | 60% | – | –
6 | CN(C)CCSc1ccc(/C=c2\[nH]c(=O)/c(=C/c3cn(C)c4ccccc34)[nH]c2=O)cc1 [Compound 5497, (3Z,6Z)-6-(4-(2-Dimethylaminoethylthio)benzylidene)-3-(1-methyl-3-indolyl)methylene-2,5-piperazinedione] | 17% | 72% | 11 µM | –
7 | CC(C)N(CCSc1ccc(/C=c2\[nH]c(=O)/c(=C/c3ccccc3)[nH]c2=O)s1)C(C)C [Compound 5399.HCl, (3Z,6Z)-6-Benzylidene-3-(5-(2-diisopropylaminoethylthio)-2-thienyl)methylene-2,5-piperazinedione] | 18% | 31% | – | –
8 | CC(=O)Nc1ccc(/C=c2\[nH]c(=O)/c(=C/c3ccc(SCCN(C)C)s3)[nH]c2=O)cc1 [Compound 5300, (3Z,6Z)-6-(4-Acetamidobenzylidene)-3-(5-(2-dimethylaminoethylthio)-2-thienyl)methylene-2,5-piperazinedione] | – | 64% | 25 µM | 70%
9 | CN(C)CCSc1ccc(/C=c2\[nH]c(=O)/c(=C/c3cn(C)c4ccccc34)[nH]c2=O)s1 [Compound 5473, (3Z,6Z)-6-(5-(2-Dimethylaminoethylthio)-2-thienyl)methylene-3-(1-methyl-3-indolyl)methylene-2,5-piperazinedione] | 25% | 61% | 13.8 µM | –
10 | COc1cc(/C=c2\[nH]c(=O)/c(=C/c3ccc(SCCN(C)C)cc3)[nH]c2=O)ccc1OCc1ccc([N+](=O)[O-])cc1 [Compound 5490.HCl, (3Z,6Z)-6-(4-(2-Dimethylaminoethylthio)benzylidene)-3-(3-methoxy-4-(4-nitrobenzyloxy)benzylidene)-2,5-piperazinedione] | 12% | 66% | 10.8 µM | –
11 | CN(C)CCSc1ccc(/C=c2\[nH]c(=O)/c(=C/c3ccc([N+](=O)[O-])cc3)[nH]c2=O)cc1 [Compound 5461, (3Z,6Z)-3-(4-(2-Dimethylaminoethylthio)benzylidene)-6-(4-nitrobenzylidene)-2,5-piperazinedione] | 1% | 44% | – | –
12 | CN(C)CCSc1ccc(/C=c2\[nH]c(=O)/c(=C/c3ccncc3)[nH]c2=O)s1 [Compound 5472, (3Z,6Z)-6-(5-(2-Dimethylaminoethylthio)-2-thienyl)methylene-3-(4-pyridylmethylene)-2,5-piperazinedione] | 0% | 22% | – | –
13 | CN(C)CCSc1ccc(/C=c2\[nH]c(=O)/c(=C/c3c4ccccc4cc4ccccc34)[nH]c2=O)s1 [Compound 5498, (3Z,6Z)-6-(9-Anthrylmethylene)-3-(5-(2-dimethylaminoethylthio)-2-thienyl)methylene-2,5-piperazinedione] | 15% | 52% | 20 µM | –
14 | CN(C)CCSc1ccc(/C=c2\[nH]c(=O)/c(=C/c3ccc(C(F)(F)F)cc3)[nH]c2=O)cc1 [Compound 5294.HCl, (3Z,6Z)-3-(4-(2-Dimethylaminoethylthio)benzylidene)-6-(4-trifluoromethylbenzylidene)-2,5-piperazinedione] | – | – | 10 µM | –
15 | CN(C)CCSc1ccc(/C=c2\[nH]c(=O)/c(=C/c3ccc4c(c3)OCO4)[nH]c2=O)cc1 [Compound 5491, (3Z,6Z)-6-(4-(2-Dimethylaminoethylthio)benzylidene)-3-(3,4-methylenedioxybenzylidene)-2,5-piperazinedione] | 0% | 65% | 14.2 µM | –
16 | COc1ccc2ccccc2c1/C=c1\[nH]c(=O)/c(=C/c2ccc(SCCN(C)C)s2)[nH]c1=O [Compound 5499, (3Z,6Z)-3-(5-(2-Dimethylaminoethylthio)-2-thienyl)methylene-6-(2-methoxy-1-naphthyl)methylene-2,5-piperazinedione] | 2% | 61% | 11.8 µM | –
17 | CN(C)CCSc1ccc(/C=c2\[nH]c(=O)/c(=C/c3ccc4c(c3)CCO4)[nH]c2=O)s1 [Compound 5311.HCl, (3Z,6Z)-3-(2,3-dihydro-5-benzofuranyl)methylene-6-(5-(2-dimethylaminoethylthio)-2-thienyl)methylene-2,5-piperazinedione] | – | – | 20 µM | –
18 | COc1cc(/C=c2\[nH]c(=O)/c(=C/c3ccc(SCCN(C)C)s3)[nH]c2=O)ccc1OCc1ccc([N+](=O)[O-])cc1 [Compound 5488, (3Z,6Z)-3-(5-(2-Dimethylaminoethylthio)-2-thienyl)methylene-6-(3-methoxy-4-(4-nitrobenzyloxy)benzylidene)-2,5-piperazinedione] | 14% | 64% | 8.2 µM | –
19 | CN(C)CCSc1ccc(/C=c2\[nH]c(=O)/c(=C/c3c4ccccc4cc4ccccc34)[nH]c2=O)s1 [Compound 5498.HCl, (3Z,6Z)-6-(9-Anthrylmethylene)-3-(5-(2-dimethylaminoethylthio)-2-thienyl)methylene-2,5-piperazinedione] | 19% | 71% | 11.5 µM | –

Continued, values first:

Row | % Inhibition (5 μm) | % Inhibition (20 μm) | IC50 | % Inhibition (100 μm) | SMILES
20 | 78% | 80% | 3.1 µM | – | Cc1ccc(/C=c2\[nH]c(=O)/c(=C/c3ccc(SCCN(C)C)cc3)[nH]c2=O)cc1 [Compound 5463.HCl, (3Z,6Z)-3-(4-(2-Dimethylaminoethylthio)benzylidene)-6-(4-methylbenzylidene)-2,5-piperazinedione]
21 | 5% | 71% | 10 µM | 69% | CN(C)CCSc1ccc(/C=c2\[nH]c(=O)/c(=C/c3ccccc3)[nH]c2=O)cc1 [Compound 5128.HCl, (3Z,6Z)-6-Benzylidene-3-(4-(2-dimethylaminoethylthio)benzylidene)-2,5-piperazinedione]
22 | 11% | 34% | – | – | CN(C)CCSc1ccc(/C=c2\[nH]c(=O)/c(=C/c3cccc(C#N)c3)[nH]c2=O)cc1 [Compound 5476.HCl, (3Z,6Z)-3-(3-Cyanobenzylidene)-6-(4-(2-dimethylaminoethylthio)benzylidene)-2,5-piperazinedione]
23 | 45% | 41% | – | – | CN(C)CCSc1ccc(/C=c2\[nH]c(=O)/c(=C/c3ccc(C#N)cc3)[nH]c2=O)cc1 [Compound 5462.HCl, (3Z,6Z)-3-(4-Cyanobenzylidene)-6-(4-(2-dimethylaminoethylthio)benzylidene)-2,5-piperazinedione]
24 | 8% | 45% | 15.7 µM | – | CN(C)CCSc1ccc(/C=c2\[nH]c(=O)/c(=C/c3ccc(N(C)C)cc3)[nH]c2=O)cc1 [Compound 5424.HCl, (3Z,6Z)-3-(4-Dimethylaminobenzylidene)-6-(4-(2-dimethylaminoethylthio)benzylidene)-2,5-piperazinedione]
25 | 5% | 46% | 15 µM | – | Cc1cccc(/C=c2\[nH]c(=O)/c(=C/c3ccc(SCCN(C)C)cc3)[nH]c2=O)c1 [Compound 5439, (3Z,6Z)-6-(4-(2-Dimethylaminoethylthio)benzylidene)-3-(3-methylbenzylidene)-2,5-piperazinedione]
26 | 41% | 43% | – | – | CN(C)CCSc1ccc(/C=c2\[nH]c(=O)/c(=C/c3ccc(C#N)cc3)[nH]c2=O)cc1 [Compound 5462, (3Z,6Z)-3-(4-Cyanobenzylidene)-6-(4-(2-dimethylaminoethylthio)benzylidene)-2,5-piperazinedione]
27 | – | 66% | 3 µM | 24% | CN(C)CCSc1ccc(/C=c2\[nH]c(=O)/c(=C/c3ccsc3)[nH]c2=O)cc1 [Compound 5133.HCl, (3Z,6Z)-6-(4-(2-Dimethylaminoethylthio)benzylidene)-3-(3-thienylmethylene)-2,5-piperazinedione]
28 | 6% | 23% | 13.7 µM | – | CN(C)CCSc1ccc(/C=c2\[nH]c(=O)/c(=C/c3ccc(N(C)C)cc3)[nH]c2=O)cc1 [Compound 5424, (3Z,6Z)-3-(4-Dimethylaminobenzylidene)-6-(4-(2-dimethylaminoethylthio)benzylidene)-2,5-piperazinedione]
